Holding throughout (format): biochemical
One assay concerns the target T1, E. coli DNA gyrase (Escherichia coli, UniProt P0AES4+P0AES6).
T1 construct: purchased Inspiralis, UK
Kind of assay: DNA gyrase supercoiling assay (E. coli). Conditions: for inhibition at 100 µM: conc. 100 μM; for inhibition at 50 µM: conc. 50 μM. As for the experimental part: (§1) The above compounds were tested for the inhibition of the enzyme DNA gyrase in a gyrase supercoiling assay and for the inhibition of the enzyme topoisomerase IV in a decatenation assay, in both Gram positive and Gram negative bacteria, according to the following methods.
(§2) Both the assays were carried out according to a set-up method modified from the article to Blanche F, et al. “Differential Behaviors of Staphylococcus aureus and Escherichia coli Type II DNA Topoisomerases”, Antimicrob. Agents Chemother., 1996, Vol. 40, No. 12 p. 2714-2720.
(§3) The compounds were screened at single concentration (200, 100 or 50 μM), in duplicate.
(§4) Reagents from S. aureus and E. coli Gyrase Supercoiling Assay kits (Inspiralis, UK) were used. A master mix with a total volume sufficient for the number of reactions to perform was prepared with the following reagents: 5× assay buffer, relaxed pBR322 substrate (0.5 μg/reaction), RNase-DNase free water. Aliquotes of this mix were dispensed in each tube, then 10× compound stock solutions or vehicle control (DMSO), were added to each reaction tube.
(§5) Reaction was started with E. Coli (2 U/reaction) or S. aureus (1 U/reaction) gyrase enzyme addition.
(§6) A sample added with an equal volume of dilution buffer was used as negative control (without enzyme).
(§7) The reaction tubes were gentle vortexed and incubated 30 minutes at 37° C. Each reaction was stopped by adding 30 μl of Stop Buffer and 30 μl chloroform/isoamyl alcohol (24/1), briefly vortexed for 5-10 seconds and centrifuged at 20000×g for 2 minutes. Samples were loaded onto 1% agarose gel and subjected to electrophoresis for 1 hour at 80V constant voltage in TAE (40 mM Tris-acetate, 2 mM EDTA).
(§8) Data acquisition and analysis. Treatment of relaxed pBR322 with DNA gyrase converted the relaxed topoisomers (DNAs of different linking number) to the supercoiled form of the plasmid, which migrates faster on an agarose gel. An upper band might also be visible, which consists of open-circular (nicked) DNA which is present in the relaxed substrate but co-migrates with some of the relaxed topoisomers.
(§9) Bands were visualized by ethidium bromide staining (dilution 1:20000) for 30 minutes followed by destaining in distilled water for 10 minutes.
(§10) In order to evaluate the compounds activity on the enzyme, the bands of supercoiled DNAs in the gel were photographed by a digital imaging system ImageQuant LAS 4000 (GE Healthcare) according to manufacturer's instructions.
(§11) The fluorescent intensity of each band was analyzed by ImageQuant TL software and it was expressed as volume (volume of the uncalibrated quantity of material in the image feature after subtraction of the background intensity by using rolling ball method).
(§12) Each band intensity was compared, as percentage, to vehicle sample band intensity, which served as positive control, on the same gel.
(§13) Inhibitory activity was expressed as percent of inhibition versus the positive control.
(§14) The supercoiled or decatenated DNA bands obtained as described in Example 1 were analysed as follows.
(§15) Bands were analyzed by gel documentation equipment (Syngene, Cambridge, UK) and quantitated using Syngene Gene Tools software. Raw gel data (fluorescent band volumes) collected from Syngene, GeneTools gel analysis software were converted to a percentage of the 100% control (the fully supercoiled or decatenated DNA band). […] The IC50 data were calculated by using the global curve fit non-linear regression tool by selecting the Single, 2 Parameter fit function from the Exponential Decay equation category.

Another assay addresses T2, E. coli Topoisomerase IV (Escherichia coli, UniProt P0AFI2+P20083).
T2 construct: purchased Inspiralis, UK
Kind of assay: Topoisomerase IV decatenation assay (E. coli). The note with it: for inhibition at 100 µM: conc. 100 μM; for inhibition at 50 µM: conc. 50 μM. As for the experimental part: as §1, §2, §3
(§16) S. aureus and E. coli Topoisomerase IV decatenation kits (Inspiralis, UK) were used. A master mix with a total volume sufficient for the number of reactions to perform was prepared with the following reagents: 5× assay buffer (50 mM HEPES-KOH (pH 7.6), 100 mM potassium glutamate, 10 mM magnesium acetate, 10 mM DTT, 1 mM ATP, 50 μg/ml albumin), kDNA substrate (200 ng/reaction), RNase-DNase free water. Aliquots of this mix were dispensed in each tube, then 10× compound stock solutions or vehicle control (DMSO), were added in each reaction tube.
(§17) Reaction was started with Topoisomerase IV enzyme (0.5 U/reaction) addition.
as §6
(§18) The reaction tubes were gentle vortexed and incubated 30 minutes at 37° C. Each reaction was stopped by adding 30 μl of Stop Buffer and 30 μl of chloroform/isoamyl alcohol (24/1), briefly vortexed for 5-10 seconds and centrifuged at 20000×g for 2 minutes. Samples taken from the upper phase were loaded into 1% agarose gel and subjected to electrophoresis for 1 hour at 80V constant voltage in TAE (40 mM Tris-acetate, 2 mM EDTA).
(§19) Data acquisition and analysis. Due to the high molecular mass, kDNA could not enter an agarose gel under normal electrophoresis conditions, but remained in the wells. In the presence of Topo IV topoisomerase mini-circles (2.5 Kb) were released from kDNA by decatenation and were quickly and easily resolved in the gel at relatively high voltages.
(§20) Bands were visualized by ethidium bromide staining (dil 1:20000) for 30 minutes followed by destaining in distilled water for 10 minutes.
(§21) For single concentration screening assay, in order to evaluate the compounds activity on the enzymes, the bands of decatenated DNAs in the gel were photographed by a digital imaging system ImageQuant LAS 4000 (GE Healthcare) according to manufacturer's instructions.
as §11, §12, §13, §14, §15

Another assay has as its target T3, S. aureus DNA gyrase (Staphylococcus aureus, UniProt P0A0K8+P20831).
T3 construct: purchased Inspiralis, UK
Nature of the assay: DNA gyrase supercoiling assay (S. aureus). The note with it: for inhibition at 100 µM: conc. 100 μM; for inhibition at 50 µM: conc. 50 μM. As for the experimental part: as §1, §2, §3, §4, §5, §6, §7, §8, §9, §10, §11, §12, §13, §14, §15

Assay [1] concerns the target T4, S. aureus Topoisomerase IV (Staphylococcus aureus, UniProt P0C1S7+P0C1U9).
T4 construct: purchased Inspiralis, UK
Kind of assay: Topoisomerase IV decatenation assay (S. aureus). Conditions: for inhibition at 100 µM: conc. 100 μM. As for the experimental part:
as §1, §2, §3, §16, §17, §6, §18, §19, §20, §21, §11, §12, §13, §14, §15

[2] abbreviates: E. coli, n/a = not active, read-out: % inhibition Topo IV.
Where [3] appears, read: S. aureus, n/a = not active, read-out: % inhibition Topo IV.
[4] abbreviates: S. aureus, conc. 50 μM, n/a = not active, read-out: % inhibition Topo IV.
The mark [5] stands for this setting: S. aureus, concentration-response curve, eight half-log concentrations 0.1 to 300 μM, read-out: IC50 Topo IV.

Where a name gives a salt, the structure may show the parent alone. Read-outs that look alike come from different tables or passages of the source.

T1 sequence (P0AES4 whole entry, one chain of several): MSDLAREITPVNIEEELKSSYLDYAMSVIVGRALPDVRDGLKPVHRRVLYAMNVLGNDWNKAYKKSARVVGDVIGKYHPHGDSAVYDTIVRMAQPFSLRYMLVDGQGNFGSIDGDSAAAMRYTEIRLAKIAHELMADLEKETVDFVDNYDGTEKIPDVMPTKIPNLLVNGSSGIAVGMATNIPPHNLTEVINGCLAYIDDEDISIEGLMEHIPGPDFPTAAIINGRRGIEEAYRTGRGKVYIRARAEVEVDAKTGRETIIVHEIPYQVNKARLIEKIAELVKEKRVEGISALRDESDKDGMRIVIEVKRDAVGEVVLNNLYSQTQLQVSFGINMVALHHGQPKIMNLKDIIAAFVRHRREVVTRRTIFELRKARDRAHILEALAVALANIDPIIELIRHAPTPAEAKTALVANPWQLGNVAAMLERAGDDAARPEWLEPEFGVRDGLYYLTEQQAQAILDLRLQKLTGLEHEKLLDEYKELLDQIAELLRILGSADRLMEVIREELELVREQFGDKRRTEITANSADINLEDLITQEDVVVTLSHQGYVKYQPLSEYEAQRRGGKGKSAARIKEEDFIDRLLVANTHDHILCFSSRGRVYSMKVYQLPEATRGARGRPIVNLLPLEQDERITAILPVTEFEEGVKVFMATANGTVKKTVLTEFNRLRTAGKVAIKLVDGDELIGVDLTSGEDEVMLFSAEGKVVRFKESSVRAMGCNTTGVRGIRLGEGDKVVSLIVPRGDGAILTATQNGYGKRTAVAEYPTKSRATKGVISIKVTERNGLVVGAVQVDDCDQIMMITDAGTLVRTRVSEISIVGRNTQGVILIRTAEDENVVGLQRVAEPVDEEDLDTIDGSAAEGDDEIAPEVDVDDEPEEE
T2 sequence (P20083 whole entry): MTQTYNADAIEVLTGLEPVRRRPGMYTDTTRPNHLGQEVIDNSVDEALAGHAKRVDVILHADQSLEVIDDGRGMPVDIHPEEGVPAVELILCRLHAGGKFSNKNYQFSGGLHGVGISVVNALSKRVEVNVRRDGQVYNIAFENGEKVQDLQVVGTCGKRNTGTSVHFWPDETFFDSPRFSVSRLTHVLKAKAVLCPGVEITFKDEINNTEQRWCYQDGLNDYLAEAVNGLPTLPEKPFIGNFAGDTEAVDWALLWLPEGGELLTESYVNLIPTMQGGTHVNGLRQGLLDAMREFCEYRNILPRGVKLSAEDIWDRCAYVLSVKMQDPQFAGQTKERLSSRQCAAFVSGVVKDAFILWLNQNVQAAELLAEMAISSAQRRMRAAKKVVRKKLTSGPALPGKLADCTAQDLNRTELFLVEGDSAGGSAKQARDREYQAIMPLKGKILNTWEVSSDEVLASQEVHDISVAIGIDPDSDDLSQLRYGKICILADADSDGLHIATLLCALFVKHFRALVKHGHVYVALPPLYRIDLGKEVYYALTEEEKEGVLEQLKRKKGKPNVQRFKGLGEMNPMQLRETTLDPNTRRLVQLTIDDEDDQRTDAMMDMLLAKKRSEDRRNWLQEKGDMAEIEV
T2 sequence (P0AFI2 whole entry): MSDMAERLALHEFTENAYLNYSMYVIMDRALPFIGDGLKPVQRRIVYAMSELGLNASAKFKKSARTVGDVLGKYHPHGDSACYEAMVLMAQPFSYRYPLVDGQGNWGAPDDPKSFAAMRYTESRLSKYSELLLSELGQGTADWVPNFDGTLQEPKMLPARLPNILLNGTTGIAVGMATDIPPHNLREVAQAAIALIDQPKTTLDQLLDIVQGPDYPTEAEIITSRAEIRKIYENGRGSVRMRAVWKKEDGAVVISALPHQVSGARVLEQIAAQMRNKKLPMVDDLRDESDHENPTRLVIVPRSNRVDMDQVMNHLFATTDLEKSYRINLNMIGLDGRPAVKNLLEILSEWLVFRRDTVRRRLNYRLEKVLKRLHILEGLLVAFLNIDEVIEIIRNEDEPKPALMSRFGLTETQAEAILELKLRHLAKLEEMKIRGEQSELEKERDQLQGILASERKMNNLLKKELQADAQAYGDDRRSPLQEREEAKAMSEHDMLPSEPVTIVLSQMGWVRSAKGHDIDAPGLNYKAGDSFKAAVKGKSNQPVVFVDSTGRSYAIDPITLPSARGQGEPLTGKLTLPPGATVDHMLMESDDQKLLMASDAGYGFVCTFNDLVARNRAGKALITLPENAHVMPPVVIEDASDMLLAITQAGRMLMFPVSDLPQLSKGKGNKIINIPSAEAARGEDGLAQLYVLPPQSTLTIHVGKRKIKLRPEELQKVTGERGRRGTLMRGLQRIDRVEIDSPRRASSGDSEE
T3 sequence (P0A0K8 whole entry): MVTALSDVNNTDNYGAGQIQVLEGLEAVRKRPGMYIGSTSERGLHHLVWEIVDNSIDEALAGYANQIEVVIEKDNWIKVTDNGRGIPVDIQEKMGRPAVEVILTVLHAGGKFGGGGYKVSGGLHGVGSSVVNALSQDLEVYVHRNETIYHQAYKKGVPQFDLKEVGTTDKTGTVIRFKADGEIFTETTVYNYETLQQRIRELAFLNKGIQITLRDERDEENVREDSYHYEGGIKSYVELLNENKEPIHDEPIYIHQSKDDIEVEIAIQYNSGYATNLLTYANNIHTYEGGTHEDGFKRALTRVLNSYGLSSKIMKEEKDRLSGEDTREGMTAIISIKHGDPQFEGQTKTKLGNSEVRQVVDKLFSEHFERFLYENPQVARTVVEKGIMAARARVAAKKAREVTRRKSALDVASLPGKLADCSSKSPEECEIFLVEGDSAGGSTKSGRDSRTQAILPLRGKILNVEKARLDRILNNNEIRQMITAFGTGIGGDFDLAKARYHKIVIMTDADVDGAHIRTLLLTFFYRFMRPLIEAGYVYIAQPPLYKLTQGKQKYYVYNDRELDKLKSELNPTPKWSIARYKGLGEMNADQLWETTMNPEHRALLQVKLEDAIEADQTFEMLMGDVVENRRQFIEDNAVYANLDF
T3 sequence (P20831 whole entry): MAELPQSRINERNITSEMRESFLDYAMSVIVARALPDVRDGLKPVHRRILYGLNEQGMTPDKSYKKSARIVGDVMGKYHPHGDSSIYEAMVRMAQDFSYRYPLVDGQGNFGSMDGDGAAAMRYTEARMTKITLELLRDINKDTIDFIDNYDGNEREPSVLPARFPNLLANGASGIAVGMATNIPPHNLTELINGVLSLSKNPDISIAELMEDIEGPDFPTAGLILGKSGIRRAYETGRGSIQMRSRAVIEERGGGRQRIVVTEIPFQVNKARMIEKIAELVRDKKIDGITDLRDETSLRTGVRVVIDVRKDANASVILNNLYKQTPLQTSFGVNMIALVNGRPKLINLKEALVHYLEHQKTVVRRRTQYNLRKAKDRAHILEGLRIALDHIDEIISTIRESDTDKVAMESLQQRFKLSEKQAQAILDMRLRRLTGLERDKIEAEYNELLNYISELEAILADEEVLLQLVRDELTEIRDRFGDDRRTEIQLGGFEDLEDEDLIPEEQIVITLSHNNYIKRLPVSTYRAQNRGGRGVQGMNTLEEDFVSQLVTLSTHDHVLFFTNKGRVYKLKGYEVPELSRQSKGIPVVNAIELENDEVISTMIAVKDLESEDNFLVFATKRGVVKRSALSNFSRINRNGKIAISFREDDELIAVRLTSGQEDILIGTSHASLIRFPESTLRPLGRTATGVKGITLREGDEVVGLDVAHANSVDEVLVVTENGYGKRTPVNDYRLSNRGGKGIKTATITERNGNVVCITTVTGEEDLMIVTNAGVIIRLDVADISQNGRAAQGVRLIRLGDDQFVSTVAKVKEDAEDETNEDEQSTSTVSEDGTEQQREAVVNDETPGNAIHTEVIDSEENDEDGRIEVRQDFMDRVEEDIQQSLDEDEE

As usually defined, the IC50 is the concentration that gives 50% inhibition. In general, inhibition refers to the share of the control response that was lost under treatment. With `O=c1cc(NCC(O)CN2CCN(c3nccc4ccccc34)CC2)c2ccccc2o1` (racemic) [Compound 59, 4-({2-hydroxy-3-[4-(isoquinolin-1-yl)piperazin-1-yl]propyl}amino)-2H-chromen-2-one], the IC50 is 1.2 µM against E. coli DNA gyrase, 16.1 µM at E. coli Topoisomerase IV, 4.4 µM at S. aureus DNA gyrase and 18.5 µM in assay [1]. Further, the inhibition at 100 µM came out at 81% against E. coli DNA gyrase (E. coli, n/a = not active); 100% on E. coli Topoisomerase IV (setting [2]); 90% on S. aureus DNA gyrase (S. aureus, n/a = not active); 77% in assay [1] (setting [3]).

Turning to `CCOC(=O)C1CN(c2nccc3ccc(F)cc23)CCC1NCc1cc2c(=O)oc3ccccc3c2[nH]1` (racemic) [Compound 184, ethyl 1-(7-fluoroisoquinolin-1-yl)-4-{[(4-oxo-1,4-dihydro[1]benzopyrano[4,3-b]pyrrol-2-yl)methyl]amino}piperidine-3-carboxylate], the inhibition at 50 µM was 68% against E. coli DNA gyrase (E. coli, n/a = not active); 58% at E. coli Topoisomerase IV (setting [2]); 83% against S. aureus DNA gyrase (S. aureus, n/a = not active); 69% in assay [1] (read-out: % inhibition Topo IV).

With `O=c1cc(NCCCN2CCN(c3nccc4ccccc34)CC2)c2ccccc2o1` [Compound 44, 4-({3-[4-(isoquinolin-1-yl)piperazin-1-yl]propyl}amino)-2H-chromen-2-one], the IC50 is 0.5 µM at E. coli DNA gyrase, 10 µM at E. coli Topoisomerase IV, 14 µM at S. aureus DNA gyrase and 90 µM in assay [1]. The inhibition at 200 µM was found to be 100% against E. coli DNA gyrase (E. coli, conc. 200 μM, n/a = not active); 100% on E. coli Topoisomerase IV (E. coli, conc. 200 μM, n/a = not active, read-out: % inhibition Topo IV); 100% at S. aureus DNA gyrase (S. aureus, conc. 200 μM, n/a = not active); 65% in assay [1] (S. aureus, conc. 200 μM, n/a = not active, read-out: % inhibition Topo IV).

As for `O=c1cc(NCCCN2CCN(c3nccc4ccc(F)cc34)CC2)c2ccccc2o1` [Compound 67, 4-({3-[4-(7-fluoroisoquinolin-1-yl)piperazin-1-yl]propyl}amino)chromen-2-one], the IC50 was found to be 0.8 µM against E. coli DNA gyrase, 1.7 µM against E. coli Topoisomerase IV, 2.8 µM at S. aureus DNA gyrase and 11.8 µM in assay [1]. In addition, the inhibition at 100 µM against E. coli DNA gyrase (E. coli, n/a = not active) was 89%; at E. coli Topoisomerase IV (setting [2]) it was 100%; against S. aureus DNA gyrase (S. aureus, n/a = not active), 97%; in assay [1] (setting [3]), 100%.

As to `O=c1cc(NCCNC2CCN(c3nccc4ccc(F)cc34)CC2)c2cc(F)ccc2o1` [Compound 131, 6-fluoro-4-[(2-{[1-(7-fluoroisoquinolin-1-yl)piperidin-4-yl]amino}ethyl)amino]-2H-chromen-2-one], the inhibition at 50 µM at E. coli DNA gyrase (E. coli, n/a = not active) was 100%; on E. coli Topoisomerase IV (setting [2]), 100%; against S. aureus DNA gyrase (S. aureus, n/a = not active) it was 81%; in assay [1] (setting [4]), 78%.

As to `O=c1nc(NCC(O)CN2CCN(c3nccc4ccc(F)cc34)CC2)c2cc(F)ccc2o1` (stereo not drawn) [Compound 148, 6-fluoro-4-({3-[4-(7-fluoroisoquinolin-1-yl)piperazin-1-yl]-2-hydroxypropyl}amino)-2H-1,3-benzoxazin-2-one], the IC50 is 0.42 µM on E. coli DNA gyrase, 0.12 µM on E. coli Topoisomerase IV, 0.024 µM against S. aureus DNA gyrase and 0.05 µM in assay [1] (setting [5]). Moreover, the inhibition at 50 µM against E. coli DNA gyrase (E. coli, n/a = not active) turned out to be 96%; on E. coli Topoisomerase IV (setting [2]), 100%; against S. aureus DNA gyrase (S. aureus, n/a = not active), 100%; in assay [1] (setting [4]) it was 100%.

Consider `O=c1nc(NCC(O)CN2CCN(c3nc(F)cc4ccc(F)cc34)CC2)c2cc(F)ccc2o1` (stereo not drawn) [Compound 149, 4-({3-[4-(3,7-difluoroisoquinolin-1-yl)piperazin-1-yl]-2-hydroxypropyl}amino)-6-fluoro-2H-1,3-benzoxazin-2-one], for which the IC50 against E. coli DNA gyrase worked out at 0.1 µM; at E. coli Topoisomerase IV, 0.14 µM; on S. aureus DNA gyrase, 0.018 µM; in assay [1] (setting [5]), 0.04 µM. Further, the inhibition at 50 µM at E. coli DNA gyrase (E. coli, n/a = not active) was found to be 90%; on E. coli Topoisomerase IV (setting [2]), 90%; against S. aureus DNA gyrase (S. aureus, n/a = not active), 100%; in assay [1] (setting [4]) it was 100%.

With `Fc1ccc2ccnc(N3CCN(CCNCc4cc5c(cn4)OCCC5)CC3)c2c1` [Compound 150, N-[(3,4-dihydro-2H-pyrano[2,3-c]pyridin-6-yl)methyl]-2-[4-(7-fluoroisoquinolin-1-yl)piperazin-1-yl]ethan-1-amine], the IC50 amounted to 17.1 µM against E. coli DNA gyrase, 4.24 µM against E. coli Topoisomerase IV, 1.02 µM on S. aureus DNA gyrase and 5.89 µM in assay [1]. The inhibition at 50 µM worked out at 50% at E. coli DNA gyrase (E. coli, n/a = not active); 50% on E. coli Topoisomerase IV (setting [2]); 100% on S. aureus DNA gyrase (S. aureus, n/a = not active); 50% in assay [1] (setting [4]).

Turning to `O=c1oc2ccccc2c2[nH]c(C(O)CN3CCN(c4nccc5ccc(F)cc45)CC3)nc12` (stereo not drawn) [Compound 152, 2-{2-[4-(7-fluoroisoquinolin-1-yl)piperazin-1-yl]-1-hydroxyethyl}[1]benzopyrano[3,4-d]imidazol-4(1H)-one hydrochloride], the IC50 at E. coli DNA gyrase amounted to 0.66 µM; against E. coli Topoisomerase IV, 0.85 µM; against S. aureus DNA gyrase, 0.31 µM; in assay [1] (setting [5]) it was 0.53 µM. Moreover, the inhibition at 50 µM against E. coli DNA gyrase (E. coli, n/a = not active) is 88%; at E. coli Topoisomerase IV (setting [2]) it was 100%; at S. aureus DNA gyrase (S. aureus, n/a = not active), 100%; in assay [1] (read-out: % inhibition Topo IV), 88%.

In the case of `O=c1oc2ccccc2c2[nH]c(CNC3CCN(c4nccc5ccc(F)cc45)CC3)c(C(F)(F)F)c12` [Compound 153, 2-({[1-(7-fluoroisoquinolin-1-yl)piperidin-4-yl]amino}methyl)-3-(trifluoromethyl)[1]benzopyrano[4,3-b]pyrrol-4(1H)-one], the IC50 against E. coli DNA gyrase is 1.42 µM; against E. coli Topoisomerase IV, 1.34 µM; at S. aureus DNA gyrase it was 0.49 µM; in assay [1], 2.3 µM. For the same compound, the inhibition at 50 µM came out at 72% against E. coli DNA gyrase (E. coli, n/a = not active); 50% at E. coli Topoisomerase IV (setting [2]); 100% at S. aureus DNA gyrase (S. aureus, n/a = not active); 61% in assay [1] (setting [4]).

Source of the values: patent US10221144B2, “Antibacterial compounds having broad spectrum of activity” (priority 2014, dated 2019).
